Experimental data reported in patent publication US20070014739A1, “Compositions and methods for controlling biofilms and bacterial infections” (priority 2005, published 2007).

Tests used:
[1] = system: Haemophilus influenzae (ATCC 10211); assay: Antibacterial effect (MIC), NCCLS procedures; format: cell-based; settings: ATCC10211, studied at 64 μg/mL, read-out: MIC (minimal inhibitory concentration)
Experimental: (§1) Using the appropriate NCCLS procedures, the antibacterial effect of asiatic acid on Haemophilus influenzae (ATCC 10211), E. coli (ATCC 25922), and P. aeruginosa (ATCC 27853) was studied at 64 μg/mL.

[2] = system: P. aeruginosa (ATCC 27853); assay: Antibacterial effect (MIC), NCCLS procedures; format: cell-based; settings: Pseudomonas aeruginosa, ATCC27853; studied at 64 μg/mL; read-out: MIC (minimal inhibitory concentration)
Experimental: as §1

E. coli (ATCC 25922) = assay: Antibacterial effect (MIC), NCCLS procedures; format: cell-based; settings: Escherichia coli, ATCC25922; studied at 64 μg/mL; read-out: MIC (minimal inhibitory concentration)
Experimental: as §1

[3] = system: E. coli laboratory strain JM109; assay: Inhibition of biofilm formation, crystal violet, 96 well plates; format: cell-based; settings: Escherichia coli, JM 109, compared to the controls, read-out: inhibited biofilm formation of the JM109 strain
S. mutans 25175 = assay: Biofilm growth inhibition in 1 mL polycarbonate tubes; format: cell-based; settings: Streptococcus mutans, 40 μg/mL
[4] = system: P. aeruginosa strain PAO1; assay: Rotating disk reactor (RDR) biofilm test with and without tobramycin, culturable bacteria; format: cell-based, Pseudomonas aeruginosa; settings: average of three days; for CFU, Test Compound: no tobramycin; for CFU, Tobramycin and Test Compound: then tobramycin 100 μg/ml 2 h
Experimental: Biofilm formation of P. aeruginosa was evaluated using a standardized biofilm method with a rotating disk reactor (RDR). This method provides a model resembling the formation of biofilms in cystic fibrosis patients. The rotating disk reactor consists of a one-liter glass beaker fitted with a drain spout. The bottom of the vessel contains a magnetically driven rotor with six 1.27 cm diameter coupons constructed from polystyrene. The rotor consists of a star-head magnetic stir bar upon which a disk was affixed to hold the coupons. The vessel with the stir bar was placed on a stir plate and rotated to provide fluid shear. A nutrient solution (AB Trace Medium with 0.3 mM glucose, see Table 3 below for composition) was added through a stopper in the top of the reactor at a flow rate of 5 ml/min. The reactor volume was approximately 180 ml and varied slightly between reactors depending on the placement of the drain spout and the rotational speed of the rotor. At a volume of 180 ml, the residence time of the reactors was 36 minutes. The reactors were operated at room temperature (c.a. 26° C.).
For each test, two RDRs were operated in parallel with one receiving test compound and the other serving as an untreated control. The RDRs were sterilized by autoclave, then filled with sterile medium and inoculated with P. aeruginosa strain PAO1. The reactors were then incubated at room temperature in batch mode (no medium flow) for a period of 24 hours, after which the flow was initiated for a further 24 hour incubation. Test compounds were dissolved in 10 ml ethanol to achieve a concentration of 1.8 mg/ml. After the 48 hours of biofilm development described above, the 10 ml of ethanol containing the test compounds were added to the reactor to achieve a final concentration of approximately 50, 100, or 200 μg/ml. Control reactors received 10 ml of ethanol. The reactors were then incubated for an additional 24 hours in batch (no flow) mode. After this incubation period, the six coupons were removed from each reactor and placed in 12-well polystyrene tissue culture plates with wells containing either 2 ml of a 100 μg/ml tobramycin solution or 2 ml of phosphate-buffered saline (PBS). These plates were incubated at room temperature for two hours. The coupons were then rinsed by three transfers to plates containing 2 ml of fresh PBS. For each two RDR reactors run in parallel, four sets of three coupons were obtained: one set with no test compound treatment and no tobramycin treatment, one set with no test compound treatment and tobramycin treatment, one set treated with a test compound treatment and no tobramycin treatment, and one set treated with a test compound treatment and tobramycin. After rinsing, one coupon of each set of three was stained with a LIVE/DEAD® BacLight™ Bacterial Viability Kit (Molecular Probes, Eugene Oreg.) and imaged using epifluorescent microscopy. The remaining two coupons were placed in 10 ml of PBS and sonicated for five minutes to remove and disperse biofilm cells. The resulting bacterial suspensions were then serially diluted in PBS and plated on tryptic soy agar plates for enumeration of culturable bacteria. The plates were incubated for 24 hours at 37° C. before colony forming units (CFU) were determined.
The results are averages from experiments performed on three separate days for each test compound. The values reported are as loglo CFU.

C[C@H]1[C@H](C)CC[C@]2(C(=O)O)CC[C@]3(C)C(=CC[C@@H]4[C@@]5(C)C[C@@H](O)[C@H](O)[C@@](C)(CO)[C@@H]5CC[C@]43C)[C@H]12 [Asiatic acid]
MIC [1]: > 64 µg/mL | MIC [2]: > 64 µg/mL | MIC (E. coli (ATCC 25922)): > 64 µg/mL | inhibition at 5 µg/mL ([3]; 5 ug/ml): ~70% | inhibition at 10 µg/mL ([3]; 10 ug/ml): ~80% | inhibition at 40 µg/mL (S. mutans 25175): > 75% | CFU, Test Compound ([4]; test compound 50 μg/ml 24 h): 7.7 loglo CFU | CFU, Tobramycin and Test Compound ([4]; test compound 50 μg/ml 24 h): 5.3 loglo CFU | CFU, Test Compound ([4]; test compound 100 μg/ml 24 h): 7.7 loglo CFU | CFU, Tobramycin and Test Compound ([4]; test compound 100 μg/ml 24 h): 5.5 loglo CFU | CFU, Test Compound ([4]; test compound 200 μg/ml 24 h): 7.5 loglo CFU | CFU, Tobramycin and Test Compound ([4]; test compound 200 μg/ml 24 h): 5.2 loglo CFU
